Consider 11 compounds from ChEMBL document CHEMBL1201862, “PubChem BioAssay data set” (2004).

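Method: 48-hour compound exposure of cells in 96-well plates, five concentrations, linear interpolation of endpoints. The concentration for 50% growth inhibition is given as GI50.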 Calls of active or inactive are those of the source. No stated cut-off is given here; in the data, active = GI50 up to about 1.1 µM and inactive = higher. Some results are limits rather than exact numbers.

Assay in all cases: growth of human tumour cells (NCI), 48 h
Assay [1] deals with OVCAR-5.
Assay [2] has as its system KM12.
The test system of assay [3] is SF-539.
In assay [4] the test system is A549.
For assay [5], the system named is SN12C.
Assay [6] has as its system EKVX.
The test system of assay [7] is MCF7.
In assay [8] the test system is NCI-H460.
The test system of assay [9] is COLO 205.
Assay [10] deals with HL-60.
For assay [11], the system named is HT-29.
In assay [12] the test system is SF-295.
The test system of assay [13] is UO-31.
For assay [14], the system named is HCT-15.
For assay [15], the system named is SNB-75.
Assay [16] relates to NCI-H23.
The test system of assay [17] is OVCAR-4.
Assay [18] relates to HCC 2998.
In assay [19] the test system is HOP-62.
Assay [20] deals with CCRF-CEM.

As to `C[n+]1c2ccccc2n2c3ccccc3c(NCCCn3ccnc3)c(C#N)c21`, the GI50 in assay [1] is 4.1 µM (inactive); in assay [2], 2.01 µM (inactive); in assay [3] it was 3.94 µM (inactive); in [4], 3.92 µM (inactive); in assay [5] it was 1.26 µM (inactive); in [6], 4.78 µM (inactive). For the same compound, the GI50 was 0.547 µM (active) in assay [7]; 1.44 µM (inactive) in assay [8]; 1.23 µM (inactive) in assay [9]; 3.94 µM (inactive) in [10]; 3.31 µM (inactive) in assay [11]; 3.74 µM (inactive) in [12]. In addition, the GI50 was 7.21 µM (inactive) in assay [13]; 5.66 µM in [14]; 1.66 µM (inactive) in assay [15]; 2.27 µM (inactive) in assay [16]; 1.61 µM (inactive) in [17]; 1.36 µM (inactive) in assay [18]. Further, the GI50 in assay [19] was 2.03 µM (inactive).

Turning to `Nc1ccn(C2OC(CO)C(O)C2(F)F)c(=O)n1` (centres undefined), the GI50 is 0.547 µM (active) in assay [1]; 39.4 µM (inactive) in assay [2]; 0.109 µM (active) in assay [3]; 0.055 µM (active) in [4]; 0.261 µM (active) in assay [5]; 0.973 µM (active) in assay [6]. Moreover, the GI50 in assay [7] was 0.0847 µM (active); in assay [8], 0.0504 µM (active); in assay [9], 0.82 µM (active); in [10], 0.0249 µM (active); in assay [11] it was 0.492 µM (active); in [12] it was 0.254 µM (active). Moreover, the GI50 in assay [13] is 0.0658 µM (active); in [14] it was 0.735 µM; in [16], 0.0391 µM (active); in assay [18] it was 0.728 µM (active); in assay [19], 0.0867 µM (active).

As to `CCOC(=O)c1c(NC(=O)Nc2ccccc2)c(C(N)=O)c2n1CCCCC2`, the GI50 in assay [2], in assay [3], in [6], in [7], in [8] and in assay [9] was > 100 µM (inactive) in each case. Besides, the GI50 is > 100 µM (inactive) in [10]; > 100 µM (inactive) in assay [11]; > 100 µM (inactive) in [12]; > 100 µM (inactive) in assay [13]; > 100 µM in assay [14]; > 100 µM (inactive) in [20]. For the same compound, the GI50 in assay [15], in assay [16], in assay [17], in [18] and in [19] was > 100 µM (inactive) in each case.

As to `CCOP(=O)(COCCn1nc(Br)c(=O)[nH]c1=O)OCC`, the GI50 in [1], in assay [2], in [3], in [4], in [5] and in [6] was > 100 µM (inactive) each time. The GI50 in assay [7] was > 100 µM (inactive); in assay [8], > 100 µM (inactive); in [9], > 100 µM (inactive); in [10], > 100 µM (inactive); in [13], > 100 µM (inactive); in [14], > 100 µM. Moreover, the GI50 in [20], in assay [15], in [16], in [18] and in assay [19] was > 100 µM (inactive) throughout.

Turning to `Cc1cccc(C(O)c2ccccn2)c1O` (centres undefined), the GI50 in assay [1], in assay [2], in [3], in assay [4], in [5] and in [6] was > 100 µM (inactive) throughout. The GI50 in assay [7], in [8], in [9], in assay [10], in assay [11] and in [12] was > 100 µM (inactive) each time. For the same compound, the GI50 in assay [13] was > 100 µM (inactive); in assay [14], 83.2 µM; in [20], > 100 µM (inactive); in assay [15] it was > 100 µM (inactive); in assay [16] it was > 100 µM (inactive); in assay [18], > 100 µM (inactive). The GI50 in [19] was > 100 µM (inactive).

On to `CN1C[C@H]2[C@@H](C1=O)[C@H](c1ccc([N+](=O)[O-])cc1)ON2C`, for which the GI50 in [1], in assay [4], in assay [5], in assay [7], in [8] and in [9] was > 100 µM (inactive) in each case. Moreover, the GI50 was > 100 µM (inactive) in [10]; > 100 µM (inactive) in assay [11]; > 100 µM (inactive) in assay [12]; > 100 µM (inactive) in [13]; > 100 µM in assay [14]; > 100 µM (inactive) in assay [20]. Moreover, the GI50 in assay [16], in assay [17], in assay [18] and in assay [19] was > 100 µM (inactive) in each case.

For the compound `Cc1ccc(C2=C(C#N)C(N)OC3=C2COc2ccccc23)cc1` (centres undefined), the GI50 is 2.4 µM (inactive) in [1]; > 100 µM (inactive) in [2]; 39.6 µM (inactive) in assay [3]; 31.4 µM (inactive) in assay [4]; 18.6 µM (inactive) in assay [5]; 7.19 µM (inactive) in assay [6]. Moreover, the GI50 in assay [7] is > 100 µM (inactive); in [8] it was 43.5 µM (inactive); in assay [9], > 100 µM (inactive); in [10], > 100 µM (inactive); in assay [11], 4.85 µM (inactive); in [13] it was 14.3 µM (inactive). In addition, the GI50 is > 100 µM in assay [14]; 22.9 µM (inactive) in [20]; 43.5 µM (inactive) in assay [16]; 13.5 µM (inactive) in [17]; 41.6 µM (inactive) in assay [18]; 15.6 µM (inactive) in [19].

`O=C1/C(=C\c2cccc(Oc3ccccc3)c2)SC(c2ccccc2)N1Cc1ccccc1` (centres undefined): the GI50 in assay [1] is 57.3 µM (inactive); in assay [2] it was 24.5 µM (inactive); in assay [3], 18.5 µM (inactive); in [4], 29.4 µM (inactive); in [5], 33 µM (inactive); in assay [6], 28 µM (inactive). The GI50 in [7] was 26.1 µM (inactive); in [8], 33.3 µM (inactive); in assay [9] it was 10.3 µM (inactive); in assay [10], 23.3 µM (inactive); in assay [11] it was 20.2 µM (inactive); in assay [12], 35.3 µM (inactive). In addition, the GI50 in [13] is 25.7 µM (inactive); in assay [14] it was 32.8 µM; in [20], 17.1 µM (inactive); in [16], 22.7 µM (inactive); in assay [17], 31.6 µM (inactive); in assay [18] it was 30.3 µM (inactive). The GI50 in assay [19] was 29.1 µM (inactive).

With `CCOC(=O)c1ccc(Nc2nc3cc(C(F)(F)F)ccc3nc2C(=O)OCC)cc1`, the GI50 in [1] was > 100 µM (inactive); in [2], > 100 µM (inactive); in [3], 50.9 µM (inactive); in assay [4], 39.6 µM (inactive); in assay [5], > 100 µM (inactive); in assay [6] it was > 100 µM (inactive). In addition, the GI50 in assay [7] was > 100 µM (inactive); in [8] it was 74.3 µM (inactive); in [9] it was 46.9 µM (inactive); in assay [10], > 100 µM (inactive); in [11], 84.1 µM (inactive); in [12], 38.3 µM (inactive). For the same compound, the GI50 is > 100 µM (inactive) in assay [13]; > 100 µM in assay [14]; > 100 µM (inactive) in [20]; 40.2 µM (inactive) in [15]; 99.1 µM (inactive) in assay [16]; 22.1 µM (inactive) in assay [18]. Further, in assay [19], the GI50 was 22 µM (inactive).

Consider `CC(=O)O[C@H]1C[C@]2(C)C(CCC3O[C@@]32C)[C@@]2(CC(c3ccoc3)OC2O)[C@@H]1C` (some centres undefined), for which the GI50 is > 100 µM (inactive) in assay [1]; 78.3 µM (inactive) in assay [2]; > 100 µM (inactive) in [3]; > 100 µM (inactive) in assay [4]; > 100 µM (inactive) in assay [5]; > 100 µM (inactive) in assay [6]. Further, the GI50 in [7] is 44.3 µM (inactive); in assay [8], 60.8 µM (inactive); in assay [9] it was > 100 µM (inactive); in [10] it was 21.6 µM (inactive); in assay [11], 75.9 µM (inactive); in assay [12] it was > 100 µM (inactive). In addition, the GI50 in assay [13] was 59.3 µM (inactive); in assay [14], 37.8 µM; in assay [20], 30.7 µM (inactive); in assay [15], > 100 µM (inactive); in assay [16], 72.3 µM (inactive); in assay [17], 41 µM (inactive). For the same compound, the GI50 in [18] was > 100 µM (inactive).

As to `Cc1cc(O)c(C(C)C)cc1SC#N`, the GI50 in [2] was 17.6 µM (inactive); in [3] it was 15.6 µM (inactive); in [7], 14.9 µM (inactive); in [8] it was 16.4 µM (inactive); in [9], 19.4 µM (inactive); in [10], 35.1 µM (inactive). Also, the GI50 in assay [12] was 17.3 µM (inactive); in assay [14], 17.3 µM; in [20], 3.51 µM (inactive); in assay [15], 10.4 µM (inactive); in assay [16] it was 17.2 µM (inactive); in assay [17], 13.5 µM (inactive). The GI50 was 17.2 µM (inactive) in assay [18] and 21 µM (inactive) in [19].
